In PubChem BioAssay (NCI):
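Results reflect a 48-hour exposure of cells in 96-well plates to compound at five concentrations. At the GI50, growth is halved. At the TGI there is no net growth.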

Experiments:
Test in all cases: NCI tumour cell line growth inhibition, 48 h
CCRF-CEM leukemia = system: CCRF-CEM leukemia
KM12 colon = system: KM12 colon
MALME-3M melanoma = system: MALME-3M melanoma
NCI-H226 lung = system: NCI-H226 lung
NCI-H460 lung = system: NCI-H460 lung
OVCAR-4 ovarian = system: OVCAR-4 ovarian
RPMI-8226 leukemia = system: RPMI-8226 leukemia
SK-MEL-28 melanoma = system: SK-MEL-28 melanoma
SK-OV-3 ovarian = system: SK-OV-3 ovarian
TK-10 renal = system: TK-10 renal

## CCOc1cc2c(NCCCN(CCO)CCO)ncnc2c(OCC)c1OCC
CCRF-CEM leukemia
  TGI: > 100 µM
KM12 colon
  TGI: > 100 µM
MALME-3M melanoma
  TGI: > 100 µM
NCI-H226 lung
  TGI: > 100 µM
NCI-H460 lung
  TGI: > 100 µM
OVCAR-4 ovarian
  TGI: > 100 µM
RPMI-8226 leukemia
  TGI: > 100 µM
SK-MEL-28 melanoma
  TGI: > 100 µM
SK-OV-3 ovarian
  TGI: > 100 µM
TK-10 renal
  TGI: > 100 µM

## N=C(N=C(N)N)N1CCN(c2ccncc2)CC1
CCRF-CEM leukemia
  GI50: > 1000 µM
  TGI: > 1000 µM
KM12 colon
  GI50: > 1000 µM
  TGI: > 1000 µM
MALME-3M melanoma
  GI50: > 1000 µM
  TGI: > 1000 µM
NCI-H226 lung
  GI50: > 1000 µM
  TGI: > 1000 µM
NCI-H460 lung
  GI50: > 1000 µM
  TGI: > 1000 µM
OVCAR-4 ovarian
  GI50: > 1000 µM
  TGI: > 1000 µM
RPMI-8226 leukemia
  GI50: > 1000 µM
  TGI: > 1000 µM
SK-MEL-28 melanoma
  GI50: > 1000 µM
  TGI: > 1000 µM
SK-OV-3 ovarian
  GI50: > 1000 µM
  TGI: > 1000 µM
TK-10 renal
  GI50: > 1000 µM
  TGI: > 1000 µM

## O=C(NCCCNc1cc(-c2cn(-c3ccccc3)nc2-c2cccc(O)c2)ccn1)c1ccccc1
CCRF-CEM leukemia
  GI50: 3.14 µM
  TGI: 54.7 µM
KM12 colon
  GI50: 3.34 µM
  TGI: 14.8 µM
MALME-3M melanoma
  GI50: 1.73 µM
  TGI: 4.53 µM
NCI-H226 lung
  GI50: 2.72 µM
  TGI: 17.9 µM
NCI-H460 lung
  GI50: 3.61 µM
  TGI: 18.7 µM
OVCAR-4 ovarian
  GI50: 3.56 µM
  TGI: 77.3 µM
RPMI-8226 leukemia
  GI50: 1.06 µM
  TGI: 3.3 µM
SK-MEL-28 melanoma
  GI50: 2.18 µM
  TGI: 6.08 µM
SK-OV-3 ovarian
  GI50: 6.63 µM
  TGI: 92.8 µM
TK-10 renal
  GI50: 8.39 µM
  TGI: 52.6 µM

## CC(=O)O[C@H]1CC[C@@]2(C)C(=CC[C@H]3C4=CC=C(C(C)=O)[C@@]4(C)CCC32)C1 (stereo not given in full)
CCRF-CEM leukemia
  TGI: > 100 µM
KM12 colon
  TGI: > 100 µM
MALME-3M melanoma
  TGI: > 100 µM
NCI-H226 lung
  TGI: 71.4 µM
NCI-H460 lung
  TGI: > 100 µM
OVCAR-4 ovarian
  TGI: > 100 µM
RPMI-8226 leukemia
  TGI: > 100 µM
SK-MEL-28 melanoma
  TGI: > 100 µM
SK-OV-3 ovarian
  TGI: > 100 µM
TK-10 renal
  TGI: > 100 µM

## O=C1C=C(Br)C(=O)C12CCc1ccccc12 (stereo not given)
CCRF-CEM leukemia
  TGI: > 27.5 µM
KM12 colon
  TGI: 44.6 µM
MALME-3M melanoma
  TGI: 29.5 µM
NCI-H226 lung
  TGI: 35.8 µM
NCI-H460 lung
  TGI: 48 µM
OVCAR-4 ovarian
  TGI: 52.4 µM
RPMI-8226 leukemia
  TGI: > 37.5 µM
SK-MEL-28 melanoma
  TGI: 27.2 µM
SK-OV-3 ovarian
  TGI: 42.6 µM
TK-10 renal
  TGI: 32.3 µM
